From patent publication EP1191024A1, “Thiadiazines and their use as inhibitors of metalloproteinases” (Tschesche, Harald, priority 2000, dated 2002)
Structures can show the parent of a compound that is named as a salt. Where two headings read alike, the source gives them in different places.

Columns and labels:
Test in all cases: MMP microfluorometric profiling assay (fluorogenic Mca-peptide substrate)
Assay type in all cases: biochemical
[1] = target: T1, MMP-1 (Homo sapiens, UniProt P03956)
T1 construct: MMP-1 from human rheumatoid synovial fibroblasts was purchased; purchased Calbiochem-Novabiochem Corporation, LaJolla; host or cells: human rheumatoid synovial fibroblasts
T1 sequence (P03956 100-469): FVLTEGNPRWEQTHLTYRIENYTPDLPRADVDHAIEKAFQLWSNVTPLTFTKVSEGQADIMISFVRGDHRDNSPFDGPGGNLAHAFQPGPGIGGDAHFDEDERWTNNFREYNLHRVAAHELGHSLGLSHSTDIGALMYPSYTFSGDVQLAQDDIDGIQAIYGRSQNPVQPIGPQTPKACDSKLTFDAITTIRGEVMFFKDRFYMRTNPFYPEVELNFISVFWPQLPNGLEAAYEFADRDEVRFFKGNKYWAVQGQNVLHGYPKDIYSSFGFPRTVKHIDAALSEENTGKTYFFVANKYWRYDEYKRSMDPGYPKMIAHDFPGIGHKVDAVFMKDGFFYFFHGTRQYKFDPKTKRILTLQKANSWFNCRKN
Experimental: (§1) The tested MMP enzymes were prepared more specifically in the laboratories of the applicants, with the exception of MMP-1. MMP-1 from human rheumatoid synovial fibroblasts was purchased from Calbiochem-Novabiochem Corporation, LaJolla. Preparation of the recombinant catalytic domain of human Gelatinase A (cdMMP-2): The catalytic domain of Pro-Gelatinase A was prepared using an E. coli expression system according to the method described by Kröger et al^[19]. The proenzyme was activated with 0.5 mM APMA at 37°C prior to use in the assay. Preparation of the recombinant catalytic domain of human neutrophile Collagenase (cdMMP-8^Met80): The enzyme was expressed in E. coli as an active variant by the method of Kleine et al^[20]. Preparation of PMNL-Gelatinase (MMP-9): Latent PMNL-pro-Gelatinase was prepared from human plasma buffy coat as described by Tschesche et al^[21]. PMNL-pro-Gelatinase was activated prior to use by incubation with Trypsin at 37°C for 10 min. Inactivation of Trypsin was accomplished with TKI. Preparation of the recombinant catalytic domain of human Macrophage Elastase (cdMMP-12): The catalytic domain of MMP-12 was expressed in E. coli. The overexpressed protein was isolated as inclusion bodies and the renatured protein was purified by affinity chromatography with a hydroxamate inhibitor coupled column as described^[22]. Preparation of the recombinant catalytic domain of human Collagenase-3 (cdMMP-13): Human pro-cdMMP-13 was prepared using an E. coli expression system according to the method described^[23]. The isolated pro-cdMMP-13 was activated prior to use by incubation with 5 mM HgCl2 for 2 h at 37°C. Preparation of the recombinant catalytic domain of Membrane-Type-1 MMP (cdMMP-14): The catalytic domain of MMP-14 was expressed in E. coli and was activated by autocatalysis^[24]. Preparation of the recombinant human ectodomain of Membrane-Type-1 MMP (ΔTM-MMP-14): The ectodomain of MMP-14 was expressed in Pichia Pastoris by the method of Roderfeld et al. and activated by yeast proteases (Furin-like-proteases) during maturation^[25].
(§2) The enzymatic activity was measured using a modified version of a resonance energy transfer fluorogenic assay as described^[26]. Progress curves were monitored by following the increase in fluorescence at 393 nm (λex = 328 nm), induced by the cleavage of the (7-methoxycoumarin-4-yl)acetyl-Pro-Leu-Gly-Leu-(3-[2,4-dinitro-phenyl]-L-2,3-diamino-propionyl)-Ala-Arg-NH2 (Mca-Pro-Leu-Gly-Leu-Dpa-Ala-Arg-NH2) fluorogenic substrate by MMPs. The fluorescent MCA-group is quenched by resonance energy transfer to the 2,4-dinitrophenyl group. Matrix metalloproteinases cleave this substrate at the Gly-Leu bond. Cleavage results in the loss of energy transfer and a large increase in fluorescence of the MCA group. This substrate is commercially available from Bachem, Switzerland.
(§3) Enzyme inhibition assays were carried out in MRB which consisted of 50 mM HEPES/NaOH, pH 7.0, 10 mM CaCl2 and 0,02% (w/v) PEG 8000 at 25°C. MMP microfluorometric profiling assay was done in white U-bottomed 96-well plates (Microfluor 1 White, Dynex, USA) with a final substrate concentration of 6 µM MCA-peptide, approximately 0.3 to 5 nM MMP with variable inhibitor concentrations and 2% DMSO vehicle. From a 1.5 mM stock (100% DMSO) the inhibitors were serially diluted with MRB to 15, 10, 5, 3, 1, 0.6, 0.3, 0.1, 0.05, 0.01 and 0.005 µM final assay concentration. Column 1, rows A through H, contained only DMSO for the "enzyme-only" wells in the assay. After preincubation for 30 min at 25°C the reaction was started by addition of substrate and the plate was read on a SpectraFluor Plus (Tecan, Germany) plate reader with excitation at 330 nm and emission at 405 nm with the gain set to 150. Each measurement was done in triplicate to ensure statistically significant results. […]

[2] = target: T2, MMP-9 (Homo sapiens, UniProt P14780); settings: for percent inhibition: MMP-9, @ 15 (µM)
T2 construct: from tissue; host or cells: human plasma buffy coat (PMNL)
T2 sequence (P14780 107-707 limits assumed): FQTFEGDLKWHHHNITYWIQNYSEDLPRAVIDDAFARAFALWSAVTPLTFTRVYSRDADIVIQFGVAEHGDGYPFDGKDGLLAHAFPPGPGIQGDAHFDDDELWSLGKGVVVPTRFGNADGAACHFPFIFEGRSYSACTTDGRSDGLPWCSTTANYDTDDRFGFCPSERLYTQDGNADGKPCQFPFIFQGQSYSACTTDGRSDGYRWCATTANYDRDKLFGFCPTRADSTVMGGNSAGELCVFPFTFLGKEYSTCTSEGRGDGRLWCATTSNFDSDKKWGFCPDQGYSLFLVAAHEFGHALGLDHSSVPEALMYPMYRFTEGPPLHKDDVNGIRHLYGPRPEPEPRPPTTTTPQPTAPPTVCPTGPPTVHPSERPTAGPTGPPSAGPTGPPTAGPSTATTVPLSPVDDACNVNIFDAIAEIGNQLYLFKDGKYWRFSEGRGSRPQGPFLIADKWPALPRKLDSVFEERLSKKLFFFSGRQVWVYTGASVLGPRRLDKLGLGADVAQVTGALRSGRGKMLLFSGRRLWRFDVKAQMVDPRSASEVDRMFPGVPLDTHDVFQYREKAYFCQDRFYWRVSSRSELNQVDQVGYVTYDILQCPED
Experimental: as §1, §2, §3

[3] = target: T3, cdMMP-12 (Homo sapiens, UniProt P39900)
T3 construct: The catalytic domain of MMP-12 was expressed in E. coli; made in house; host or cells: E. coli
T3 sequence (P39900 106-263 limits assumed): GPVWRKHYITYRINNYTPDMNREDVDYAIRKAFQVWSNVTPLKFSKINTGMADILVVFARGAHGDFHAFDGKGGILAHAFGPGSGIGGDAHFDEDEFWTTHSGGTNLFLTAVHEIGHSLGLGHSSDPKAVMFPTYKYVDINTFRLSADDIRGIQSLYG
Experimental: as §1, §2, §3

[4] = target: cdMMP-13 (Homo sapiens, UniProt P45452); settings: for percent inhibition: cdMMP-13, @ 15 (µM)
Experimental: as §1, §2, §3

[5] = target: T4, cdMMP-14 (Homo sapiens, UniProt P50281); settings: for percent inhibition: cdMMP-14, @ 15 (µM)
T4 construct: made in house; host or cells: E. coli
Experimental: as §1, §2, §3

IC50 [1] [nM]	IC50 [2] [nM]	IC50 [3] [nM]	IC50 ([4]; read-out: cdMMP-13 IC50) [nM]	IC50 [5] [nM]	percent inhibition ([1]; MMP-1, @ 15 (µM)) [%^a)@ 15]	percent inhibition [2] [%^a)@ 15]	percent inhibition [4] [%^a)@ 15]	percent inhibition [5] [%^a)@ 15]	SMILES	IC50 [4] [nM]
294	552	342	449	556	–	–	–	–	C[C@H](NS(=O)(=O)c1ccccc1)C(=O)NC1=NN=C(c2ccc([N+](=O)[O-])cc2)CS1 [Example 9, (2S)-N-[5-(4-Nitrophenyl)-6H-1,3,4-thiadiazin-2-yl]-2-[(phenylsulfonyl)amino]-propanamide]	–
–	–	1420	–	–	67	49	67	66	O=C(CC1NC(=O)NC1=O)NC1=NN=C(c2ccc(C3CCCCC3)cc2)CS1 (stereo not shown) [Example 25, N-[5-(4-Cyclohexylphenyl)-6H-1,3,4-thiadiazin-2-yl]-2-(2,5-dioxo-4-imidazolidinyl)acetamide]	–
507	257	403	361	443	–	–	–	–	C[C@H](NS(=O)(=O)c1cccnc1)C(=O)NC1=NN=C(c2ccc(Cl)cc2)CS1 [Example 29, (2S)-N-[5-(4-Chlorophenyl)-6H-1,3,4-thiadiazin-2-yl]-2-[(3-pyridylsulfonyl)-amino]propanamide]	–
560	780	654	947	477	–	–	–	–	O=C1C[C@@H](C(=O)NC2=NN=C(c3ccc(Cl)cc3)CS2)NC(=O)N1 [Example 30, (4S)-N-[5-(4-Chlorophenyl)-6H-1,3,4-thiadiazin-2-yl]-2,6-dioxohexahydro-4-pyrimidinecarboxamide]	–
–	689	436	1110	707	–	–	–	–	COc1ccc(S(=O)(=O)N[C@@H](C)C(=O)NC2=NN=C(c3ccc(C)cc3)CS2)cc1 [Example 17, (2S)-2-{[(4-Methoxyphenyl)sulfonyl]amino}-N-[5-(4-methylphenyl)-6H-1,3,4-thiadiazin-2-yl]propanamide]	–
663	1400	412	2310	1120	–	–	–	–	COc1ccc(C2=NN=C(NC(=O)[C@H](C)NS(=O)(=O)c3ccccc3)SC2)cc1 [Example 12, (2S)-N-[5-(4-Methoxyphenyl)-6H-1,3,4-thiadiazin-2-yl]-2-[(phenylsulfonyl)-amino]propanamide]	–
725	216	425	537	727	–	–	–	–	C[C@@H](NS(=O)(=O)c1ccccc1)C(=O)NC1=NN=C(c2ccc(F)cc2)CS1 [Example 14, (2R)-N-[5-(4-Fluorophenyl)-6H-1,3,4-thiadiazin-2-yl]-2-[(phenylsulfonyl)amino]-propanamide]	–
–	–	297	–	1070	–	45	39	–	O=C(CC1NC(=O)NC1=O)NC1=NN=C(c2ccc(Br)cc2)CS1 (stereo not shown) [Example 24, N-[5-(4-Bromophenyl)-6H-1,3,4-thiadiazin-2-yl]-2-(2,5-dioxo-4-imidazolidinyl)-acetamide]	–
–	851	463	> 15000	1400	–	–	–	–	CC(C)[C@H](NS(=O)(=O)c1ccccc1)C(=O)NC1=NN=C(c2ccc(Cl)cc2)CS1 [Example 22, (2S)-N-[5-(4-Chlorophenyl)-6H-1,3,4-thiadiazin-2-yl]-3-methyl-2-[(phenylsulfonyl)amino]butanamide]	–
520	722	298	853	605	–	–	–	–	C[C@H](NS(=O)(=O)c1ccccc1)C(=O)NC1=NN=C(c2ccc(Cl)s2)CS1 [Example 10, (2S)-N-[5-(5-Chloro-2-thienyl)-6H-1,3,4-thiadiazin-2-yl]-2-[(phenylsulfonyl)-amino]propanamide]	–
–	517	217	–	1100	–	–	36	–	O=C(CC1NC(=O)NC1=O)NC1=NN=C(c2ccc(N3CCCC3)cc2)CS1 (stereo not shown) [Example 26, 2-(2,5-Dioxo-4-imidazolidinyl)-N-{5-[4-(1-pyrrolidinyl)phenyl]-6H-1,3,4-thiadiazin-2-yl}acetamide]	–
–	–	380	–	–	–	40	34	52	O=C(CC1NC(=O)NC1=O)NC1=NN=C(c2ccc(Cl)cc2)CS1 (stereo not shown) [Example 23, N-[5-(4-Chlorophenyl)-6H-1,3,4-thiadiazin-2-yl]-2-(2,5-dioxo-4-imidazolidinyl)-acetamide]	–
–	686	533	–	637	–	–	–	–	C[C@H](NS(=O)(=O)c1ccccc1)C(=O)NC1=NN=C(c2ccc(Br)cc2)CS1 [Example 6, (2S)-N-[5-(4-Bromophenyl)-6H-1,3,4-thiadiazin-2-yl]-2-[(phenylsulfonyl)amino]-propanamide]	658
–	2570	920	1090	1760	–	–	–	–	COc1ccc(S(=O)(=O)NCC(=O)NC2=NN=C(c3c(F)c(F)c(F)c(F)c3F)CS2)cc1 [Example 16, 2-{[(4-Methoxyphenyl)sulfonyl]amino}-N-[5-(2,3,4,5,6-pentafluorophenyl)-6H-1,3,4-thiadiazin-2-yl]acetamide]	–
–	661	259	605	700	–	–	–	–	COc1ccc(S(=O)(=O)NCC(=O)NC2=NN=C(c3ccc(Cl)cc3Cl)CS2)cc1 [Example 19, N-[5-(2,4-Dichlorophenyl)-6H-1,3,4-thiadiazin-2-yl]-2-{[(4-methoxyphenyl)-sulfonyl]amino}acetamide]	–

SMILES	IC50 [1] [nM]	IC50 [2] [nM]	IC50 [3] [nM]	IC50 ([4]; read-out: cdMMP-13 IC50) [nM]	IC50 [5] [nM]	percent inhibition ([1]; MMP-1, @ 15 (µM)) [%^a)@ 15]	percent inhibition [2] [%^a)@ 15]	percent inhibition [4] [%^a)@ 15]	percent inhibition [5] [%^a)@ 15]	IC50 [4] [nM]
C[C@H](NS(=O)(=O)c1ccccc1)C(=O)NC1=NN=C(c2ccc(C(F)(F)F)cc2)CS1 [Example 4, (2S)-2-[(Phenylsulfonyl)amino]-N-{5-[4-(trifluormethyl)phenyl]-6H-1,3,4-thiadiazin-2-yl}propanamide]	490	1040	367	–	1100	–	–	–	–	1030
C=CCNC1=NN=C(c2ccc(Cl)cc2)CS1 [Example 31, N-Allyl-5-(4-chlorophenyl)-6H-1,3,4-thiadiazin-2-amine hydrobromide]	–	783	> 15000	–	2700	–	–	–	–	> 15000
